Tests used:
U87 cells = assay: Bioluminescence imaging of parental brain cancer cells without luciferase in vitro; type: cell-based
Procedure: (§1) Triplicate wells were plated with increasing numbers of either U87 cells without luciferase (a) or with luciferase (b). In each plate: Row 1, wells 1-3, no cells; wells 4-6, 1,875 cells per well. Row 2, wells 1-3, 3,750 cells per well; wells 4-6, 7,500 cells per well. Row 3, wells 1-3, 15,000 cells per well; wells 4-6, 30,000 cells per well. Row 4, wells 1-3, 60,000 cells per well. Incubation buffer, Leibovitz's L-15 medium with MgCl2 (5 mM). Each well was incubated with B-YL (100 μg/mL). Plates were imaged using an IVIS 200 In vivo Imaging System. Escalating luminescence was observed only in wells containing luciferase-expressing cells (b).
(§2) The B-YL substrate can be incubated with the brain cancer cell line U87-luc, which was derived from the parental brain cancer cell line U87 after stable transfection with a luciferase gene. […] B-YL clearly adsorbed across the cell membrane and was oxidized by luciferase. Therefore, B-YL can be used for the detection of the cancer cells by bioluminescence.
(§3) The EGF-B-SA-B-YL complex can be tested for the ability to target and image brain cancer cell lines that overexpress the biomarker EGFR using bioluminescence in vitro. U87 (gray hatch bars) and U87-luc (black bars) cells can be treated with free B-YL (150 μg/m L), untargeted B-SA-B-YL complex (150 μg/mL) or EGFR-targeted EGF-B-SA-B-YL complex (50-150 µg/mL). Bioluminescence were detected immediately. […]

U87-luc cells = assay: Bioluminescence imaging of luciferase-transfected brain cancer cells in vitro; type: cell-based; conditions: B-YL 100 μg/mL, L-15 medium with MgCl2 5 mM
Procedure: as §1, §2, §3

firefly luciferase = target: T1, firefly luciferase (Photinus pyralis, UniProt P08659); assay: Bioluminescence spectrum of probe B-YL with firefly luciferase; type: biochemical
T1 construct: purchased Sigma
T1 sequence (P08659 whole entry): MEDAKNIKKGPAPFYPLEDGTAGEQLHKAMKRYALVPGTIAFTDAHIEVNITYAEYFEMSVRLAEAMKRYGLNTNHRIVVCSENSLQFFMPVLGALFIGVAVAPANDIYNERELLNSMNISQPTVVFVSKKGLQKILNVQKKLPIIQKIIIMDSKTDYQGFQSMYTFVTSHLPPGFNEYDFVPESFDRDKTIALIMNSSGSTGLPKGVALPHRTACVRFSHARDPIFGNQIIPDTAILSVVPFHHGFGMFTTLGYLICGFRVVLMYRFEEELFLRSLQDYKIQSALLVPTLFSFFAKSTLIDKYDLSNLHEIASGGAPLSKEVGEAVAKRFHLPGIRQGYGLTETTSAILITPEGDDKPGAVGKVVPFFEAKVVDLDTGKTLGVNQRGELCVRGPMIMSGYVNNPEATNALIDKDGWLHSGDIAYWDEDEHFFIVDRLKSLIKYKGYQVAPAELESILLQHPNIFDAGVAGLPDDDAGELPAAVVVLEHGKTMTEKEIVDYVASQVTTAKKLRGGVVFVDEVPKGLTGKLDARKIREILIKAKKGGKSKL
Procedure: After the synthesis of the biotinylated probe, B-YL, the probe can be evaluated with a commercially available firefly luciferase. […] The mechanism for generating bioluminescence is shown in Scheme 2.
In a well of 96 quartz plate (500 μl), HEPES buffer (30 mM) solution (400 μl, pH=7.7) containing MgSO4 (5.0 mM), ATP (2.6 mM), DTT (3.5 mM), CoA (1.5 mM) and commercially available firefly luciferase (40 μg/ml), was prepared. The probe B-YL was then added and mixed to a final concentration (32 μM). Bioluminescence spectrum of B-YL was then taken immediately with instrument SynergyMx (BioTek, VT).

## 6-(3-N—{N-[5-(Hexahydro-2-oxo-1H-thieno[3,4-d]imidazol-4-yl)-1-oxopentyl]-, [3aS-(3aα,4β, 6aα)]}-aminoethyl-poly(ethylene glycol)21-oxyethyl-1H-1,2,3-triazol-5-yl-methylamino-oxomethyl-amino)-2-benzothiazolyl]-4,5-dihydro-,(4S)-4-thiazolecarboxylic acid [B-YL]
U87 cells; B-YL 100 μg/mL, 0-60,000 cells per well, L-15 medium with MgCl2 5 mM
  bioluminescence activity in parental U87 cells (FIG. 1a): did not reveal bioluminescence activity regardless of the number of cells
U87 cells; U87 cells without luciferase
  conversion to bioluminescence photons by U87 cells (FIG. 2): Neither of the complexes (B-SA-B-YL or EGF-B-SA-B-YL) nor free B-YL were converted to bioluminescence photons
U87-luc cells
  number of U87-luc cells at which bioluminescence signal was detected (FIG. 1b): at least 7,500 cells per well
Firefly luciferase; commercial firefly luciferase
  substrate of firefly luciferase: found to be a substrate of firefly luciferase
Firefly luciferase; commercial firefly luciferase 40 μg/ml, B-YL 32 μM, HEPES buffer pH 7.7
  bioluminescence maximum emission: 590 nm

Source: patent US10458988B2, “Biotinylated luminescent probe” (priority 2017, dated 2019)
